Test results reported in patent US20260356856A1, “KRAS G12S AND G12C INHIBITORS” (MIRATI THERAPEUTICS, INC., priority 2023, published 2026).

Key:
[1] = biological target: T1, KRas G12C (Homo sapiens, UniProt P01116, G12C); experiment: KRas binding assay, TR-FRET displacement of Cy5 labelled tracer; settings: 60-minute incubation at room temperature, 1% DMSO, pH 7.5
T1 construct: Biotinylated KRas (corresponding to amino acids 1-169, produced at Accelegan Inc.); biotin (biotinylated); purchased Accelegan Inc
T1 sequence (P01116 1-169 isoform P01116-2 G12C): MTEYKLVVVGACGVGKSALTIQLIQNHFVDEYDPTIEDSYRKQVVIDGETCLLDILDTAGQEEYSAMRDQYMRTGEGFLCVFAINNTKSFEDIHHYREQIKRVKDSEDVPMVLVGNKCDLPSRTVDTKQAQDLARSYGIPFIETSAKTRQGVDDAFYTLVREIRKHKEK
In short: (§1)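 Truncated KRas (1-169), biotinylated, Tb-streptavidin donor; one-hour room-temperature incubation; IC50 by four-parameter curve fitting.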

[2] = biological target: T2, KRas G12S (Homo sapiens, UniProt P01116, G12S); experiment: as above; settings: 60-minute incubation at room temperature, 1% DMSO, pH 7.5
T2 construct: Biotinylated KRas (corresponding to amino acids 1-169, produced at Accelegan Inc.); biotin (biotinylated); purchased Accelegan Inc
T2 sequence (P01116 1-169 isoform P01116-2 G12S): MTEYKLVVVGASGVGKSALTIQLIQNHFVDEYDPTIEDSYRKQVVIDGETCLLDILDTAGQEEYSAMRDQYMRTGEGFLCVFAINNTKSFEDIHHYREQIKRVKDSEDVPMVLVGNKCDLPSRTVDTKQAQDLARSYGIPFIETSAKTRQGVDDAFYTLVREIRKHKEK
In short: as §1

[3] = biological target: T3, KRas WT (Homo sapiens, UniProt P01116); experiment: as above; settings: 60-minute incubation at room temperature, 1% DMSO, pH 7.5
T3 construct: Biotinylated KRas (corresponding to amino acids 1-169, produced at Accelegan Inc.); biotin (biotinylated); purchased Accelegan Inc
T3 sequence (P01116 1-169 isoform P01116-2): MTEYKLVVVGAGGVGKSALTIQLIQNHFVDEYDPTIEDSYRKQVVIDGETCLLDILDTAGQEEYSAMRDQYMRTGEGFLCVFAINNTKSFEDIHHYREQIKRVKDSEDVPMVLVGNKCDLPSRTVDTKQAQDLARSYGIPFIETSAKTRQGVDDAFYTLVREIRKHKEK
In short: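 Assay buffer was HEPES (50 mM, pH 7.5) with MgCl2 (5 mM), DTT (1 mM) and Tween-20 (0.005%). Biotinylated KRas spanning residues 1-169 met tracer, terbium streptavidin and compound (1% DMSO, final) for 60 minutes at ambient temperature before reading. POC values were fitted for IC50.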

[4] = biological target: T4, KRas-mediated phosphorylation of ERK in MKN1 cells (Homo sapiens, UniProt P01116); experiment: Inhibition of KRas-mediated phosphorylation of ERK (HTRF), MKN1 cells; type: cell-based; settings: MKN1 cells (KRas WT); HTRF pERK; 3 h incubation
T4 construct: pERK HTRF read-out
T4 sequence (P01116 1-188 isoform P01116-2): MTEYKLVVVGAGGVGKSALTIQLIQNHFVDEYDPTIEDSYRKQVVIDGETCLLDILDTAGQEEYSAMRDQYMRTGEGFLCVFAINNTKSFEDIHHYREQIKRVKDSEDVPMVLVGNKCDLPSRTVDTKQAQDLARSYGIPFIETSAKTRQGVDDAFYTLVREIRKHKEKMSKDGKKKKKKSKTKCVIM
Experimental: Inhibition of KRas Phosphorylation of ERK (HTRF) by Exemplary Compounds of Formula (Ia) or (Ib)
Cisbio HTRF Advanced pERK Assay Catalog #64AERPEH • Cells: MKN1, PSN1 • Procedure: • 1. Day 1: Seed 6,000 cells/well −25 μl/well in 384-well white solid bottom plate; RPM1_10% FBS. Incubate overnight at 37 °C/5% CO2. • 2.

[5] = biological target: T5, KRas-mediated phosphorylation of ERK in A549 cells (Homo sapiens, UniProt P01116, G12S); experiment: Inhibition of KRas-mediated phosphorylation of ERK (HTRF), A549 cells; type: cell-based; settings: HTRF pERK, 3 h incubation
T5 construct: pERK HTRF read-out
T5 sequence (P01116 1-188 isoform P01116-2 G12S): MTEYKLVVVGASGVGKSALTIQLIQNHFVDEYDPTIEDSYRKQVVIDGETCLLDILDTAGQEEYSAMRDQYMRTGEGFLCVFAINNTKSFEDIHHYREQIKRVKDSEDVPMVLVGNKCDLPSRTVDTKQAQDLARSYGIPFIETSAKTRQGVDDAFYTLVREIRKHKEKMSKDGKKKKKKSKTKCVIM

In the case of CCc1c(F)ccc2cc(O)cc(N3CCc4c(nc(OC[C@@]56CCCN5C[C@H](F)C6)nc4NCCCC(=O)n4ccc(C)n4)C3)c12 [Example 193, 4-((7-(8-ethyl-7-fluoro-3-hydroxynaphthalen-1-yl)-2-(((2R,7aS)-2-fluorotetrahydro-1H-pyrrolizin-7a(5H)-yl)methoxy)-5,6,7,8-tetrahydropyrido[3,4-d]pyrimidin-4-yl)amino)-1-(3-methyl-1H-pyrazol-1-yl) butan-1-one], the IC50 [1] was 5 nM, the IC50 [2] was 11 nM and the IC50 [3] was 113 nM. It also gave an IC50 [4] of 2140 nM and an IC50 [5] of 230 nM.

CCc1c(F)ccc2cc(O)cc(-c3ncc4c(N5C[C@H]6CC[C@@]6(C(=O)n6ccc(C)n6)C5)nc(OC[C@@]56CCCN5C[C@H](F)C6)nc4c3F)c12 [Example 105, ((1S,5S)-3-(7-(8-ethyl-7-fluoro-3-hydroxynaphthalen-1-yl)-8-fluoro-2-(((2R,7aS)-2-fluorotetrahydro-1H-pyrrolizin-7a(5H)-yl)methoxy)pyrido[4,3-d]pyrimidin-4-yl)-3-azabicyclo[3.2.0]heptan-1-yl)(3-methyl-1H-pyrazol-1-yl)methanone] showed an IC50 [1] of 35 nM, an IC50 [2] of 50 nM and an IC50 [3] of 58 nM. The IC50 [4] was 517 nM and the IC50 [5] was > 10000 nM.

Cc1ccn(C(=O)C23CC(CNc4nc(OC[C@@]56CCCN5C[C@H](F)C6)nc5c(F)c(-c6ccc(F)c7sc(N)c(C#N)c67)c(Cl)cc45)(C2)C3)n1 [Example 184, 2-amino-4-(6-chloro-8-fluoro-2-(((2R,7aS)-2-fluorotetrahydro-1H-pyrrolizin-7a(5H)-yl)methoxy)-4-(((3-(3-methyl-1H-pyrazole-1-carbonyl)bicyclo[1.1.1]pentan-1-yl)methyl)amino)quinazolin-7-yl)-7-fluorobenzo[b]thiophene-3-carbonitrile] was tested, and the IC50 [1] was 5 nM, the IC50 [2] was 6 nM and the IC50 [3] was 27 nM. It also gave an IC50 [4] of 1500 nM and an IC50 [5] of 115 nM.

In the case of CCc1c(F)ccc2cc(O)cc(-c3ncc4c(N5CC6CC(C(=O)n7ccc(C)n7)C6C5)nc(OC[C@@]56CCCN5C[C@H](F)C6)nc4c3F)c12 (stereo partly drawn) [Example 98, (3-(7-(8-ethyl-7-fluoro-3-hydroxynaphthalen-1-yl)-8-fluoro-2-(((2R,7aS)-2-fluorotetrahydro-1H-pyrrolizin-7a(5H)-yl)methoxy)pyrido[4,3-d]pyrimidin-4-yl)-3-azabicyclo[3.2.0]heptan-6-yl)(3-methyl-1H-pyrazol-1-yl)methanone], the IC50 [1] was 73 nM, the IC50 [2] was 20 nM and the IC50 [3] was 178 nM. The IC50 [4] was 2490 nM and the IC50 [5] was 61 nM.

With CCc1c(F)ccc2cc(O)cc(-c3ncc4c(NCC5CC(C(=O)n6ccc(C)n6)C5)nc(OC[C@@]56CCCN5C[C@H](F)C6)nc4c3F)c12 (stereo partly drawn) [Example 93, (3-(((7-(8-ethyl-7-fluoro-3-hydroxynaphthalen-1-yl)-8-fluoro-2-(((2R,7aS)-2-fluorotetrahydro-1H-pyrrolizin-7a(5H)-yl)methoxy)pyrido[4,3-d]pyrimidin-4-yl)amino)methyl)cyclobutyl)(3-methyl-1H-pyrazol-1-yl)methanone] the IC50 [1] was 4 nM, the IC50 [2] was 3 nM and the IC50 [3] was 13 nM. The IC50 [4] was 325 nM and the IC50 [5] was 26 nM.

With CCc1c(F)ccc2cc(O)cc(-c3ncc4c(N5C[C@H]6CC(C(=O)n7ccc(C)n7)C[C@H]6C5)nc(OC[C@@]56CCCN5C[C@H](F)C6)nc4c3F)c12 (stereo partly drawn) [Example 116, ((3aR,6aS)-2-(7-(8-ethyl-7-fluoro-3-hydroxynaphthalen-1-yl)-8-fluoro-2-(((2R,7aS)-2-fluorotetrahydro-1H-pyrrolizin-7a(5H)-yl)methoxy)pyrido[4,3-d]pyrimidin-4-yl)octahydrocyclopenta[c]pyrrol-5-yl)(3-methyl-1H-pyrazol-1-yl)methanone] the IC50 [1] was 111 nM, the IC50 [2] was 11 nM and the IC50 [3] was 3480 nM. The IC50 [4] was 4440 nM and the IC50 [5] was 35 nM.

In the case of CCc1c(F)ccc2cc(O)cc(-c3ncc4c(N5CC(C(=O)n6ccc(C)n6)C6(CC6)C5)nc(OC[C@@]56CCCN5C[C@H](F)C6)nc4c3F)c12 (stereo partly drawn) [Example 119, (5-(7-(8-ethyl-7-fluoro-3-hydroxynaphthalen-1-yl)-8-fluoro-2-(((2R,7aS)-2-fluorotetrahydro-1H-pyrrolizin-7a(5H)-yl)methoxy)pyrido[4,3-d]pyrimidin-4-yl)-5-azaspiro[2.4]heptan-7-yl)(3-methyl-1H-pyrazol-1-yl)methanone], the IC50 [1] was 171 nM, the IC50 [2] was 183 nM and the IC50 [3] was 402 nM. The IC50 [4] was > 10000 nM and the IC50 [5] was > 10000 nM.

For C=CC1(C(=O)n2ccc(C)n2)CCN(c2nc(OC[C@@]34CCCN3C[C@H](F)C4)nc3c(F)c(-c4cc(O)cc5ccc(F)c(CC)c45)ncc23)C1 (stereo partly drawn) [Example 107, (1-(7-(8-ethyl-7-fluoro-3-hydroxynaphthalen-1-yl)-8-fluoro-2-(((2R,7aS)-2-fluorotetrahydro-1H-pyrrolizin-7a(5H)-yl)methoxy)pyrido[4,3-d]pyrimidin-4-yl)-3-vinylpyrrolidin-3-yl)(3-methyl-1H-pyrazol-1-yl)methanone], the IC50 [1] was 37 nM, the IC50 [2] was 513 nM and the IC50 [3] was 1060 nM. For the same compound, the IC50 [4] was > 10000 nM and the IC50 [5] was 2070 nM.

With CCc1c(F)ccc2cc(O)cc(-c3c(F)cc4c(N5CCCC(C(=O)n6ccc(C)n6)CC5)nc(OC[C@@]56CCCN5C[C@H](F)C6)nc4c3F)c12 (stereo partly drawn) [Example 174, (1-(7-(8-ethyl-7-fluoro-3-hydroxynaphthalen-1-yl)-6,8-difluoro-2-(((2R,7aS)-2-fluorotetrahydro-1H-pyrrolizin-7a(5H)-yl)methoxy)quinazolin-4-yl)azepan-4-yl)(3-methyl-1H-pyrazol-1-yl)methanone] the IC50 [1] was 1120 nM, the IC50 [2] was 182 nM and the IC50 [3] was 1120 nM. The IC50 [4] was 3000 nM and the IC50 [5] was 507 nM.

CCc1c(F)ccc2cc(O)cc(-c3ncc4c(NC[C@@H]5C[C@@H]5C(=O)n5ccc(C)n5)nc(OC[C@@]56CCCN5C[C@H](F)C6)nc4c3F)c12 [Example 103, ((1S,2R)-2-(((7-(8-ethyl-7-fluoro-3-hydroxynaphthalen-1-yl)-8-fluoro-2-(((2R,7aS)-2-fluorotetrahydro-1H-pyrrolizin-7a(5H)-yl)methoxy)pyrido[4,3-d]pyrimidin-4-yl)amino)methyl)cyclopropyl)(3-methyl-1H-pyrazol-1-yl)methanone] was tested, and the IC50 [1] was 37 nM, the IC50 [2] was 35 nM and the IC50 [3] was 34 nM. For the same compound, the IC50 [4] was 351 nM and the IC50 [5] was 167 nM.

CCc1c(F)ccc2cc(O)cc(-c3ncc4c(NC[C@@H]5C[C@H]5C(=O)n5ccc(C)n5)nc(OC[C@@]56CCCN5C[C@H](F)C6)nc4c3F)c12 [Example 158, ((1R,2R)-2-(((7-(8-ethyl-7-fluoro-3-hydroxynaphthalen-1-yl)-8-fluoro-2-(((2R,7aS)-2-fluorotetrahydro-1H-pyrrolizin-7a(5H)-yl)methoxy)pyrido[4,3-d]pyrimidin-4-yl)amino)methyl)cyclopropyl)(3-methyl-1H-pyrazol-1-yl)methanone] was tested, and the IC50 [1] was 29 nM, the IC50 [2] was 23 nM and the IC50 [3] was 13 nM. The IC50 [4] was 112 nM and the IC50 [5] was 126 nM.

CCc1c(F)ccc2cc(O)cc(-c3ncc4c(N5C[C@H]6C[C@H](C(=O)n7ccc(C)n7)C[C@H]6C5)nc(OC[C@@]56CCCN5C[C@H](F)C6)nc4c3F)c12 [Example 160, ((3aR,5R,6aS)-2-(7-(8-ethyl-7-fluoro-3-hydroxynaphthalen-1-yl)-8-fluoro-2-(((2R,7aS)-2-fluorotetrahydro-1H-pyrrolizin-7a(5H)-yl)methoxy)pyrido[4,3-d]pyrimidin-4-yl)octahydrocyclopenta[c]pyrrol-5-yl)(3-methyl-1H-pyrazol-1-yl)methanone] showed an IC50 [1] of 1790 nM, an IC50 [2] of 461 nM and an IC50 [3] of 258 nM. For the same compound, the IC50 [4] was 3690 nM and the IC50 [5] was 3380 nM.

Work on Cc1ccn(C(=O)C2CCCCCN(c3nc(OC[C@@]45CCCN4C[C@H](F)C5)nc4c(F)c(-c5ccc(F)c6sc(N)c(C#N)c56)c(Cl)cc34)C2)n1 (stereo partly drawn) [Example 173, 2-amino-4-(6-chloro-8-fluoro-2-(((2R,7aS)-2-fluorotetrahydro-1H-pyrrolizin-7a(5H)-yl)methoxy)-4-(3-(3-methyl-1H-pyrazole-1-carbonyl)azocan-1-yl)quinazolin-7-yl)-7-fluorobenzo[b]thiophene-3-carbonitrile] yielded an IC50 [1] of 29 nM, an IC50 [2] of 27 nM and an IC50 [3] of 31 nM. It also gave an IC50 [4] of 54 nM and an IC50 [5] of 772 nM.

Work on CCc1c(F)ccc2cc(O)cc(-c3ncc4c(N5CCC(C)(C(=O)n6ccc(C)n6)C5)nc(OC[C@@]56CCCN5C[C@H](F)C6)nc4c3F)c12 (stereo partly drawn) [Example 94, (1-(7-(8-ethyl-7-fluoro-3-hydroxynaphthalen-1-yl)-8-fluoro-2-(((2R,7aS)-2-fluorotetrahydro-1H-pyrrolizin-7a(5H)-yl)methoxy)pyrido[4,3-d]pyrimidin-4-yl)-3-methylpyrrolidin-3-yl)(3-methyl-1H-pyrazol-1-yl)methanone] yielded an IC50 [1] of 15 nM, an IC50 [2] of 232 nM and an IC50 [3] of 306 nM. For the same compound, the IC50 [4] was 6200 nM and the IC50 [5] was 1070 nM.
